The assay relates to HCV 1b-377-neo replicon cells. Briefly: HCV replicon assay, HCV 1b-377-neo replicon cells (1b FRET). Format: cell-based, Hepatitis C virus genotype 1b. To be noted: HCV 1b-377-neo replicon cells, HCV 1b genotype; for EC50: Hepatitis C virus, read-out: EC50 range against HCV 1b (Table 2, Range). In outline:
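Compounds tested in HCV genotype 1b-377-neo replicon cells with a FRET read-out. Cells resistant to a reference NS5A inhibitor through a Y2065H NS5A mutation were run alongside wild-type cells.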
(In general: Replicon systems follow genome replication, usually without infectious particles.)

The structures appear in SMILES notation.

The term EC50 denotes the concentration at which the effect is half-maximal. On to `COC(=O)N[C@@H](C(=O)N1CCC[C@H]1c1ncc(-c2ccc(-c3ccc(-c4[nH]c([C@@H]5CCCN5C(=O)[C@H](NC(=O)OC)c5ccccc5)nc4C(F)(F)F)cc3)cc2)[nH]1)c1ccccc1` [Example J37, methyl ((1R)-2-((2S)-2-(5-(4′-(2-((2S)-1-((2R)-2-((methoxycarbonyl)amino)-2-phenylacetyl)-2-pyrrolidinyl)-1H-imidazol-5-yl)-4-biphenylyl)-4-(trifluoromethyl)-1H-imidazol-2-yl)-1-pyrrolidinyl)-2-oxo-1-phenylethyl)carbamate], for which the EC50 was 0.001 to 0.999 nM.

For the compound `COC(=O)N[C@@H](C)C(=O)N1CCC[C@H]1c1ncc(-c2ccc(-c3ccc(-c4[nH]c([C@@H]5CCCN5C(=O)[C@H](C)NC(=O)OC)nc4C(F)(F)F)cc3)cc2)[nH]1` [Example J38, methyl ((1S)-2-((2S)-2-(5-(4′-(2-((2S)-1-(N-(methoxycarbonyl)-L-alanyl)-2-pyrrolidinyl)-4-(trifluoromethyl)-1H-imidazol-5-yl)-4-biphenylyl)-1H-imidazol-2-yl)-1-pyrrolidinyl)-1-methyl-2-oxoethyl)carbamate], the EC50 fell in the range of 0.001 to 0.999 nM.

Regarding `COC(=O)N[C@H](C(=O)N1CCC[C@H]1c1ncc(-c2ccc(-c3ccc(-c4[nH]c([C@@H]5CCCN5C(=O)[C@@H](NC(=O)OC)C(C)C)nc4C(F)(F)F)cc3)cc2)[nH]1)C(C)C` [Example J39, methyl ((1S)-1-(((2S)-2-(5-(4′-(2-((2S)-1-((2S)-2-((methoxycarbonyl)amino)-3-methylbutanoyl)-2-pyrrolidinyl)-1H-imidazol-5-yl)-4-biphenylyl)-4-(trifluoromethyl)-1H-imidazol-2-yl)-1-pyrrolidinyl)carbonyl)-2-methylpropyl)carbamate], the EC50 was in the range of 0.001 to 0.999 nM.

Turning to `CCN(CC)[C@@H](C(=O)N1CCC[C@H]1c1ncc(-c2ccc(-c3ccc(-c4[nH]c([C@@H]5CCCN5C(=O)[C@@H](c5ccccc5)N(CC)CC)nc4C(F)(F)F)cc3)cc2)[nH]1)c1ccccc1` [Example J40], the EC50 lay in the range of 0.001 to 0.999 nM.

On to `COC(=O)N[C@H](C(=O)N1CCC[C@H]1c1ncc(-c2ccc(-c3ccc(-c4[nH]c([C@@H]5CCCN5C(=O)[C@@H](NC(=O)OC)C5CC5)nc4C(F)(F)F)cc3)cc2)[nH]1)C1CC1` [Example J41, methyl ((1S)-1-cyclopropyl-2-((2S)-2-(5-(4′-(2-((2S)-1-((2S)-2-cyclopropyl-2-((methoxycarbonyl)amino)acetyl)-2-pyrrolidinyl)-1H-imidazol-5-yl)-4-biphenylyl)-4-(trifluoromethyl)-1H-imidazol-2-yl)-1-pyrrolidinyl)-2-oxoethyl)carbamate], for which the EC50 fell in the range of 0.001 to 0.999 nM.

In the case of `COC(=O)N[C@H](C(=O)N1CCC[C@H]1c1ncc(-c2ccc(-c3ccc(-c4[nH]c([C@@H]5CCCN5C(=O)[C@@H](NC(=O)OC)[C@@H](C)OC)nc4C(F)(F)F)cc3)cc2)[nH]1)[C@@H](C)OC` [Example J42, methyl ((1S,2R)-2-methoxy-1-(((2S)-2-(5-(4′-(2-((2S)-1-(N-(methoxycarbonyl)-O-methyl-L-threonyl)-2-pyrrolidinyl)-4-(trifluoromethyl)-1H-imidazol-5-yl)-4-biphenylyl)-1H-imidazol-2-yl)-1-pyrrolidinyl)carbonyl)propyl)carbamate], the EC50 lay within 0.001 to 0.999 nM.

Take `COC(=O)N[C@@H](C)C(=O)N(C)[C@@H](C)c1ncc(-c2ccc(-c3ccc(-c4[nH]c([C@@H]5CCCN5C(=O)[C@H](C)NC(=O)OC)nc4C(F)(F)F)cc3)cc2)[nH]1` [Example J42.a, methyl ((1S)-2-((2S)-2-(5-(4′-(2-((1S)-1-((N-(methoxycarbonyl)-L-alanyl)(methyl)amino)ethyl)-1H-imidazol-5-yl)-4-biphenylyl)-4-(trifluoromethyl)-1H-imidazol-2-yl)-1-pyrrolidinyl)-1-methyl-2-oxoethyl)carbamate]: the EC50 fell in the range of 0.001 to 0.999 nM.

`CCN(CC)[C@@H](C(=O)N1CCC[C@H]1c1ncc(-c2ccc(-c3ccc(-c4[nH]c([C@@H]5CCCN5C(=O)[C@H](C)NC(=O)OC)nc4C(F)(F)F)cc3)cc2)[nH]1)c1ccccc1` [Example J45, methyl ((1S)-2-((2S)-2-(5-(4′-(2-((2S)-1-((2R)-2-(diethylamino)-2-phenylacetyl)-2-pyrrolidinyl)-1H-imidazol-5-yl)-4-biphenylyl)-4-(trifluoromethyl)-1H-imidazol-2-yl)-1-pyrrolidinyl)-1-methyl-2-oxoethyl)carbamate]: the EC50 fell in the range of 0.001 to 0.999 nM.

For `COC(=O)N[C@@H](C(=O)N1CCC[C@H]1c1ncc(-c2cnc(-c3ccc(-c4[nH]c([C@@H]5CCCN5C(=O)[C@H](NC(=O)OC)c5ccccc5)nc4C(F)(F)F)cc3)nc2)[nH]1)c1ccccc1` [Example J46, methyl ((1R)-2-((2S)-2-(5-(4-(5-(2-((2S)-1-((2R)-2-((methoxycarbonyl)amino)-2-phenylacetyl)-2-pyrrolidinyl)-1H-imidazol-5-yl)-2-pyrimidinyl)phenyl)-4-(trifluoromethyl)-1H-imidazol-2-yl)-1-pyrrolidinyl)-2-oxo-1-phenylethyl)carbamate], the EC50 is 0.001 to 0.999 nM.

Take `CCN(CC)[C@@H](C(=O)N1CCC[C@H]1c1ncc(-c2cnc(-c3ccc(-c4[nH]c([C@@H]5CCCN5C(=O)[C@@H](c5ccccc5)N(CC)CC)nc4C(F)(F)F)cc3)nc2)[nH]1)c1ccccc1` [Example J47, (1R)-2-((2S)-2-(5-(4-(5-(2-((2S)-1-((2R)-2-(diethylamino)-2-phenylacetyl)-2-pyrrolidinyl)-1H-imidazol-5-yl)-2-pyrimidinyl)phenyl)-4-(trifluoromethyl)-1H-imidazol-2-yl)-1-pyrrolidinyl)-N,N-diethyl-2-oxo-1-phenylethanamine]: the half-maximal effective concentration (EC50) lay within 0.001 to 0.999 nM.

As to `COC(=O)N[C@H](C(=O)N1CCC[C@H]1c1ncc(-c2cnc(-c3ccc(-c4[nH]c([C@@H]5CCCN5C(=O)[C@@H](NC(=O)OC)C(C)C)nc4C(F)(F)F)cc3)nc2)[nH]1)C(C)C` [Example J48, methyl ((1S)-1-(((2S)-2-(5-(2-(4-(2-((2S)-1-((2S)-2-((methoxycarbonyl)amino)-3-methylbutanoyl)-2-pyrrolidinyl)-4-(trifluoromethyl)-1H-imidazol-5-yl)phenyl)-5-pyrimidinyl)-1H-imidazol-2-yl)-1-pyrrolidinyl)carbonyl)-2-methylpropyl)carbamate], the EC50 lay within 0.001 to 0.999 nM.

Take `COC(=O)N[C@H](C(=O)N1CCC[C@H]1c1ncc(-c2cnc(-c3ccc(-c4[nH]c([C@@H]5CCCN5C(=O)[C@@H](NC(=O)OC)C5CC5)nc4C(F)(F)F)cc3)nc2)[nH]1)C1CC1` [Example J49, methyl ((1S)-1-cyclopropyl-2-((2S)-2-(5-(4-(5-(2-((2S)-1-((2S)-2-cyclopropyl-2-((methoxycarbonyl)amino)acetyl)-2-pyrrolidinyl)-1H-imidazol-5-yl)-2-pyrimidinyl)phenyl)-4-(trifluoromethyl)-1H-imidazol-2-yl)-l-pyrrolidinyl)-2-oxoethyl)carbamate]: the EC50 was in the range of 0.001 to 0.999 nM.

As to `COC(=O)N[C@@H](C)C(=O)N1CCC[C@H]1c1ncc(-c2cnc(-c3ccc(-c4[nH]c([C@@H]5CCCN5C(=O)[C@H](C)NC(=O)OC)nc4C(F)(F)F)cc3)nc2)[nH]1` [Example J50, methyl ((1S)-2-((2S)-2-(5-(4-(5-(2-((2S)-1-(N-(methoxycarbonyl)-L-alanyl)-2-pyrrolidinyl)-1H-imidazol-5-yl)-2-pyrimidinyl)phenyl)-4-(trifluoromethyl)-1H-imidazol-2-yl)-1-pyrrolidinyl)-1-methyl-2-oxoethyl)carbamate], the EC50 lay in the range of 0.001 to 0.999 nM.

`O=C(C(c1ccccc1)N1C2CCC1CC2)N1CCC[C@H]1c1ncc(-c2ccc(-c3ccc(-c4cnc([C@@H]5CCCN5C(=O)C(c5ccccc5)N5C6CCC5CC6)[nH]4)cc3)cc2)[nH]1` (stereo partly drawn) [Example M1, 7,7′-(4,4′-biphenyldiylbis(1H-imidazole-5,2-diyl(2S)-2,1-pyrrolidinediyl(2-oxo-1-phenyl-2,1-ethanediyl)))bis(7-azabicyclo[2.2.1]heptane)]: the “EC50 range against HCV 1b (Table 2, Range)” value was “>A”.

For the compound `O=C(C(c1ccccc1)N1C2CCC1CC2)N1CCC[C@H]1c1ncc(-c2ccc(-c3ccc(-c4cnc([C@@H]5CCCN5C(=O)C(c5ccccc5)N5C6CCC5CC6)[nH]4)cc3)cc2)[nH]1` (stereo partly drawn) [Example M2, 7,7′-(4,4′-biphenyldiylbis(1H-imidazole-5,2-diyl(2S)-2,1-pyrrolidinediyl(2-oxo-1-phenyl-2,1-ethanediyl)))bis(7-azabicyclo[2.2.1]heptane)], the EC50 fell in the range of 1 to 99 nM.

Take `CCN(C1CC1)[C@@H](C(=O)N1CCC[C@H]1c1ncc(-c2ccc(-c3ccc(-c4cnc([C@@H]5CCCN5C(=O)[C@@H](c5ccccc5)N(CC)C5CC5)[nH]4)cc3)cc2)[nH]1)c1ccccc1` [Example M3, N,N′-(4,4′-biphenyldiylbis(1H-imidazole-5,2-diyl(2S)-2,1-pyrrolidinediyl((1R)-2-oxo-1-phenyl-2,1-ethanediyl)))bis(N-ethylcyclopropanamine)]: the EC50 was in the range of 1 to 99 nM.

For `CCOC(=O)N[C@H](C)C(=O)N1CCC[C@H]1c1ncc(-c2ccc(-c3ccc(-c4cnc([C@@H]5CCCN5C(=O)[C@@H](C)NC(=O)OCC)[nH]4)cc3)cc2)[nH]1` [Example M4, ethyl ((1R)-2-((2S)-2-(5-(4′-(2-((2S)-1-(N-(ethoxycarbonyl)-D-alanyl)-2-pyrrolidinyl)-1H-imidazol-5-yl)-4-biphenylyl)-1H-imidazol-2-yl)-1-pyrrolidinyl)-1-methyl-2-oxoethyl)carbamate], the EC50 lay within 100 to 999 nM.

With `CCOC(=O)N[C@@H](C)C(=O)N1CCC[C@H]1c1ncc(-c2ccc(-c3ccc(-c4cnc([C@@H]5CCCN5C(=O)[C@H](C)NC(=O)OCC)[nH]4)cc3)cc2)[nH]1` [Example M5, ethyl ((1S)-2-((2S)-2-(5-(4′-(2-((2S)-1-(N-(ethoxycarbonyl)-L-alanyl)-2-pyrrolidinyl)-1H-imidazol-5-yl)-4-biphenylyl)-1H-imidazol-2-yl)-1-pyrrolidinyl)-1-methyl-2-oxoethyl)carbamate], the EC50 lay within 1000 to 10000 nM.
